# In ChEMBL document CHEMBL4507307 (2021):
# How the values were obtained:
# [1] = target: Muscarinic acetylcholine receptor M1 (Homo sapiens) (UniProt P11229); conditions: Compound concentration 10.0 uM
# [2] = target: 5-hydroxytryptamine receptor 1A (Homo sapiens) (UniProt P08908); conditions: Compound concentration 10.0 uM
# [3] = target: Alpha-2C adrenergic receptor (Homo sapiens, UniProt P18825); test: GPCRScan assay: inhibition of Alpha2C; parameters: radioligand conc. used [nm] 0.5 – 1.0, parental cells stable MDCK
# [4] = target: Alpha-2A adrenergic receptor (Homo sapiens, UniProt P08913); test: GPCRScan assay: inhibition of Alpha2A; parameters: radioligand conc. used [nm] 1.0 – 3.0, parental cells stable MDCK
# [5] = target: 5-hydroxytryptamine receptor 1E (Homo sapiens, UniProt P28566); test: GPCRScan assay: inhibition of 5-HT1E; parameters: radioligand conc. used [nm] 2.1 – 5.0, parental cells stable HEK
# [6] = target: 5-hydroxytryptamine receptor 2C (Homo sapiens, UniProt P28335); test: GPCRScan assay: inhibition of 5-HT2C; parameters: radioligand conc. used [nm] 1.0 – 2.5, parental cells HEK T
# 5-hydroxytryptamine receptor 2C, sequence (P28335 whole entry): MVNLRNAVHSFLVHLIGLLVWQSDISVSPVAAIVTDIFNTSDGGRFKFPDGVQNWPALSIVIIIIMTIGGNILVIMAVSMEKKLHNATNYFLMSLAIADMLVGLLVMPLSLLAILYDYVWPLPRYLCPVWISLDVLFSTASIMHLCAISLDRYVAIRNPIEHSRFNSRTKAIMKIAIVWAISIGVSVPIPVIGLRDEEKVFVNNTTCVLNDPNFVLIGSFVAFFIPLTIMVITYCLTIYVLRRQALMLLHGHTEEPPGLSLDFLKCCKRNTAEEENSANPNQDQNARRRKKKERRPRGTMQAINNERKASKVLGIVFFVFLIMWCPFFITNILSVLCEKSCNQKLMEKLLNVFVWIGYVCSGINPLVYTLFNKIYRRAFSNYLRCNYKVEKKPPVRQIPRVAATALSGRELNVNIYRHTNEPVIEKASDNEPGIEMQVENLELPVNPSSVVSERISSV
# D(2) dopamine receptor = D(2) dopamine receptor (Homo sapiens, UniProt P14416); test: GPCRScan assay: inhibition of D2; parameters: radioligand conc. used [nm] 0.4 – 1.0, parental cells stable fibroblast
# [7] = target: Alpha-2B adrenergic receptor (Homo sapiens, UniProt P18089); test: GPCRScan assay: inhibition of Alpha2B; parameters: radioligand conc. used [nm] 1.5 – 2.0, parental cells HEKT
# [8] = target: 5-hydroxytryptamine receptor 1B (Homo sapiens, UniProt P28222); test: GPCRScan assay: inhibition of 5-HT1B; parameters: radioligand conc. used [nm] 0.6 – 1.5, parental cells stable HEK
# [9] = target: Alpha-1B adrenergic receptor (Homo sapiens, UniProt P35368); test: GPCRScan assay: inhibition of Alpha1B; parameters: radioligand conc. used [nm] 0.3 – 1.0, parental cells stable HEK
# Histamine H2 receptor = Histamine H2 receptor (Homo sapiens, UniProt P25021); test: GPCRScan assay: inhibition of H2; parameters: radioligand conc. used [nm] 0.02 – 0.05, parental cells Stable HEK
# Histamine H2 receptor, sequence (P25021 whole entry): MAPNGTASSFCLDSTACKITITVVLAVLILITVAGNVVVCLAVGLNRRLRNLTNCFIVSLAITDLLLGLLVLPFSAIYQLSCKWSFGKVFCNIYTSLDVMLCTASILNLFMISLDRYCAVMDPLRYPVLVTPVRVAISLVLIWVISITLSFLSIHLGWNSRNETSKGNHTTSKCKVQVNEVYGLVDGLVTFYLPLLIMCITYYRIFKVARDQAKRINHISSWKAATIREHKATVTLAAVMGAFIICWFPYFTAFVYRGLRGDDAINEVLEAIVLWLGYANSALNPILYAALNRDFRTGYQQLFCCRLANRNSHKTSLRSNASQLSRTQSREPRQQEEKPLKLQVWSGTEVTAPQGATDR
# Mu-type opioid receptor = Mu-type opioid receptor (Homo sapiens, UniProt P35372); test: GPCRScan assay: inhibition of MOR; parameters: radioligand conc. used [nm] 1.0 – 2.0, parental cells stable HEK
# [10] = target: 5-hydroxytryptamine receptor 1D (Homo sapiens, UniProt P28221); test: GPCRScan assay: inhibition of 5-HT1D; parameters: radioligand conc. used [nm] 1.0 – 2.0, parental cells HEKT
# [11] = target: 5-hydroxytryptamine receptor 2A (Homo sapiens, UniProt P28223); test: GPCRScan assay: inhibition of 5-HT2A; parameters: radioligand conc. used [nm] 1.2 – 2.4, parental cells HEKT
# [12] = target: 5-hydroxytryptamine receptor 5A (Homo sapiens, UniProt P47898); test: GPCRScan assay: inhibition of 5-HT5A; parameters: radioligand conc. used [nm] 2.0 - 3.3, parental cells Flp-In CHO
# [13] = target: Muscarinic acetylcholine receptor M1 (Homo sapiens, UniProt P11229); test: GPCRScan assay: inhibition of M1; parameters: radioligand conc. used [nm] 0.3 – 1.2, parental cells stable CHO
# [14] = target: Dual specificity protein kinase CLK2 (Homo sapiens, UniProt P49760); test: CLK2 Kinase activity screen
# Dual specificity protein kinase CLK2, sequence (P49760 whole entry, looked up): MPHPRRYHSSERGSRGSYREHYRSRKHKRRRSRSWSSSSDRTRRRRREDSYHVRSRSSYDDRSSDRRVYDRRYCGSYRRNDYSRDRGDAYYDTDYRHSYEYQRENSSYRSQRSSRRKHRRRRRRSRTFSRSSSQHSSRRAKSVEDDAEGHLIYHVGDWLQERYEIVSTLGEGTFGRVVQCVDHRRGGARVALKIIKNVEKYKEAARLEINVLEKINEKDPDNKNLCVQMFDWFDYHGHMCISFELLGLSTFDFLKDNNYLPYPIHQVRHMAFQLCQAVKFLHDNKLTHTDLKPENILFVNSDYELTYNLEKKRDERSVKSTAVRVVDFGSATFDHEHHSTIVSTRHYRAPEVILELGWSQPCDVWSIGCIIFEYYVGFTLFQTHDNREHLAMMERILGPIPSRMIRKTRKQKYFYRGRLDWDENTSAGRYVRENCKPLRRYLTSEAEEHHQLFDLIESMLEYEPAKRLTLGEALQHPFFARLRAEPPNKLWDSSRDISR
# [15] = target: Homeodomain-interacting protein kinase 1 (Homo sapiens) (UniProt Q86Z02); test: HIPK1 (Myak) Kinase activity screen
# [16] = target: Dual specificity protein kinase CLK1 (Homo sapiens, UniProt P49759); test: CLK1 Kinase activity screen
# Dual specificity protein kinase CLK1, sequence (P49759 whole entry, looked up): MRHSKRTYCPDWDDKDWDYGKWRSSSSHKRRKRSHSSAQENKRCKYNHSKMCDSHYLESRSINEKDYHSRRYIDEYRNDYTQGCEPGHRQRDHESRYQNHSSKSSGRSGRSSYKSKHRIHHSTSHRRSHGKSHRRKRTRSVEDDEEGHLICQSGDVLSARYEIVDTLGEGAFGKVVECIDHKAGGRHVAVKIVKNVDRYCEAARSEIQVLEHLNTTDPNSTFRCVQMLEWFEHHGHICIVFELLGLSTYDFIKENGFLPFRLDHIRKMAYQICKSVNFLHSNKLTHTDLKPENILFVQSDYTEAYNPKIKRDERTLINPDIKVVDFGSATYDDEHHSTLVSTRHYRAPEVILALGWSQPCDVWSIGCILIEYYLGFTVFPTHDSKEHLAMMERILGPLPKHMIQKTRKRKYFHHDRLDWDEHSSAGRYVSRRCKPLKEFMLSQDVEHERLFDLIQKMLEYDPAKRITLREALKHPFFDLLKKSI
# [17] = target: Dual specificity tyrosine-phosphorylation-regulated kinase 1A (Homo sapiens, UniProt Q13627); test: DYRK1A Kinase activity screen
# [18] = target: Protein kinase C theta type (Homo sapiens) (UniProt Q04759); test: PRKCQ (PKC theta) Kinase activity screen
# [19] = target: Cyclin-dependent kinase 5/CDK5 activator 1 (Homo sapiens) (UniProt Q00535+Q15078); test: CDK5/p35 Kinase activity screen; assay type: protein-complex assay
# Cyclin-dependent kinase 5/CDK5 activator 1 (Homo sapiens), sequence (Q00535 whole entry): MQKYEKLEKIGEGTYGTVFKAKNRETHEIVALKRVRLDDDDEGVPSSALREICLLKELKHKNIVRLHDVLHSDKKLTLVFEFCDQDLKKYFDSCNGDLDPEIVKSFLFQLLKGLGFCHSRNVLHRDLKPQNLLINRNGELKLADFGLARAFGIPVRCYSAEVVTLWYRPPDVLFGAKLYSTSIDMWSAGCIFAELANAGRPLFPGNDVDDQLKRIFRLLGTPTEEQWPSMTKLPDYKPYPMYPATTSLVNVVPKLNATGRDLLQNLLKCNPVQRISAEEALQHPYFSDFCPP
# Cyclin-dependent kinase 5/CDK5 activator 1 (Homo sapiens), sequence (Q15078 99-307 partner limits assumed): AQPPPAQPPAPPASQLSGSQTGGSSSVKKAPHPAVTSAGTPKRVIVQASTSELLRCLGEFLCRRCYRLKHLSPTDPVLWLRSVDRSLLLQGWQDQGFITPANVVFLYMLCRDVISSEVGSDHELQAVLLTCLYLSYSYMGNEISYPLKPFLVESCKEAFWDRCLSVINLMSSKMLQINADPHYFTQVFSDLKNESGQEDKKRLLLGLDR
# [20] = target: CDK2/Cyclin A2 (Homo sapiens) (UniProt P24941+P20248); test: CDK2/cyclin A Kinase activity screen; assay type: protein-complex assay
# [21] = target: Proto-oncogene tyrosine-protein kinase ROS (Homo sapiens) (UniProt P08922); test: ROS1 Kinase activity screen
# [22] = target: AMP-activated protein kinase (AMPK) alpha-1/beta-1/gamma-1 (Homo sapiens) (UniProt P54619+Q9Y478+Q13131); test: AMPK A1/B1/G1 Kinase activity screen; assay type: protein-complex assay
# [23] = target: Serine/threonine-protein kinase Nek1 (Homo sapiens) (UniProt Q96PY6); test: NEK1 Kinase activity screen
# [24] = target: Proto-oncogene tyrosine-protein kinase Src (Homo sapiens) (UniProt P12931); test: SRC Kinase activity screen
# [25] = target: Death-associated protein kinase 1 (Homo sapiens) (UniProt P53355); test: DAPK1 Kinase activity screen
# [26] = target: Focal adhesion kinase 1 (Homo sapiens) (UniProt Q05397); test: PTK2 (FAK) Kinase activity screen
# Focal adhesion kinase 1 (Homo sapiens), sequence (Q05397 2-1052 limits assumed): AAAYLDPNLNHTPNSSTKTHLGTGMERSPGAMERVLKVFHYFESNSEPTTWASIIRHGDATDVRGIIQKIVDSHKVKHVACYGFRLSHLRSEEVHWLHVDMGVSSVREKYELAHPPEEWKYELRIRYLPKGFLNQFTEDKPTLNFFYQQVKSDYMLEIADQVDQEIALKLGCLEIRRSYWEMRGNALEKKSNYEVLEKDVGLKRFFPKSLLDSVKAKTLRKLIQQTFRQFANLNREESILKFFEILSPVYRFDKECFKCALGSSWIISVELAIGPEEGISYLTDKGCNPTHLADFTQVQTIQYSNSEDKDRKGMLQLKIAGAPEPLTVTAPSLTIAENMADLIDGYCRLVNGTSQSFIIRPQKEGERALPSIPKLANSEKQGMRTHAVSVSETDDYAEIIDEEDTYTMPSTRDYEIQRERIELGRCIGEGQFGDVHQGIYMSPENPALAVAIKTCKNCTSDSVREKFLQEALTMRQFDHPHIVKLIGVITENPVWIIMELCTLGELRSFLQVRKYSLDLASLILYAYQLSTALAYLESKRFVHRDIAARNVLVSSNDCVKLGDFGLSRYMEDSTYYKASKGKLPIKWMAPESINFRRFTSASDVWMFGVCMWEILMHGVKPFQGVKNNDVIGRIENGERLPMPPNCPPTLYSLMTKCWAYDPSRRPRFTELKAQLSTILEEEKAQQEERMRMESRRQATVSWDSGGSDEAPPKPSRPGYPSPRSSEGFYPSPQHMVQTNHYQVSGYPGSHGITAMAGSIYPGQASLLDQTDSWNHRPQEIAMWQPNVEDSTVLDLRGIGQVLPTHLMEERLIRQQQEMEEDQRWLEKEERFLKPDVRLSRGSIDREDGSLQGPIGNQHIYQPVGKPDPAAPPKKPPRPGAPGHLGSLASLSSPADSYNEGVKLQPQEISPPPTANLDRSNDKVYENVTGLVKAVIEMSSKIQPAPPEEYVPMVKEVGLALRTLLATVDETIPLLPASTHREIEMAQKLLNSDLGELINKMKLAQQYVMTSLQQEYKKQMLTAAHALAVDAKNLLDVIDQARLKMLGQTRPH
# [27] = target: Dual specificity protein kinase CLK3 (Homo sapiens) (UniProt P49761); test: CLK3 Kinase activity screen
# [28] = target: Serine/threonine-protein kinase pim-1 (Homo sapiens) (UniProt P11309); test: PIM1 Kinase activity screen
# Serine/threonine-protein kinase pim-1 (Homo sapiens), sequence (P11309 whole entry, looked up): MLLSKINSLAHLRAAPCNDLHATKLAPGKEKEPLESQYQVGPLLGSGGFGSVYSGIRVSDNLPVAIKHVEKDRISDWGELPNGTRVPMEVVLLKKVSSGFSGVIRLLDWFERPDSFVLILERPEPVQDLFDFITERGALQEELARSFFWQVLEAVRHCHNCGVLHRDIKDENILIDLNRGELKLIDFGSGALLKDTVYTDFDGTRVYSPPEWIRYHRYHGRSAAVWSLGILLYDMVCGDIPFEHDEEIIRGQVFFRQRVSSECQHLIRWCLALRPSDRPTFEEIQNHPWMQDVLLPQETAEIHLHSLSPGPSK
# [29] = target: Serine/threonine-protein kinase Nek2 (Homo sapiens) (UniProt P51955); test: NEK2 Kinase activity screen
# [30] = target: Dual specificity mitogen-activated protein kinase kinase 2 (Homo sapiens) (UniProt P36507); test: MAP2K2 (MEK2) Kinase activity screen
# [31] = target: Ephrin type-B receptor 1 (Homo sapiens) (UniProt P54762); test: EPHB1 Kinase activity screen
# Ephrin type-B receptor 1 (Homo sapiens), sequence (P54762 whole entry): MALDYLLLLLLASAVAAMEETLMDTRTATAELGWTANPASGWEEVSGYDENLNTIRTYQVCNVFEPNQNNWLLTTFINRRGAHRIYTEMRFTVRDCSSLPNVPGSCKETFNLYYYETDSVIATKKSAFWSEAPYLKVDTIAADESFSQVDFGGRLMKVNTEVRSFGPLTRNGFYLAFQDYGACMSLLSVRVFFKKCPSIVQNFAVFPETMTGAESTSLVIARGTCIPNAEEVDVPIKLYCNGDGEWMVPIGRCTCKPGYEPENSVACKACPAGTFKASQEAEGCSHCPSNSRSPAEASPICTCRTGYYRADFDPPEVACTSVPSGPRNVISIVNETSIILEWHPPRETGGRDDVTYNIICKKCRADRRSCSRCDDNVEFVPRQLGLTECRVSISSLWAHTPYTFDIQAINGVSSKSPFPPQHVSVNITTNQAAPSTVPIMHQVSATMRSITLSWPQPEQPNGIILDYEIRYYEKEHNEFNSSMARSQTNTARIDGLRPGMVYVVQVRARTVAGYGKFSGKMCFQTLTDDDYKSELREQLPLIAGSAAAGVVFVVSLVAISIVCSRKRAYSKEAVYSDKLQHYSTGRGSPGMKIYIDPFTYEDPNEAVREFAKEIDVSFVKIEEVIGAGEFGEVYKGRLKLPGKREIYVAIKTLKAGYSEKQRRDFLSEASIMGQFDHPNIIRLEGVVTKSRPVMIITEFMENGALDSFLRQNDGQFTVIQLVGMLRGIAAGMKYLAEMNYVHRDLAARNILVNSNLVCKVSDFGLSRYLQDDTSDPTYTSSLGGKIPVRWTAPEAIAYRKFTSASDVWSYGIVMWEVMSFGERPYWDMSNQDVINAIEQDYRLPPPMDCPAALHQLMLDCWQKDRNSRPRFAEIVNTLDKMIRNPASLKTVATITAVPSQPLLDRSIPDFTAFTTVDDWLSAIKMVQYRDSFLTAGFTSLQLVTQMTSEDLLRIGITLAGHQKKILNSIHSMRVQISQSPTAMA
# [32] = target: Serine/threonine-protein kinase Chk2 (Homo sapiens) (UniProt O96017); test: CHEK2 (CHK2) Kinase activity screen
# [33] = target: Mast/stem cell growth factor receptor Kit (Homo sapiens) (UniProt P10721); test: KIT Kinase activity screen
# [34] = target: SRSF protein kinase 1 (Homo sapiens) (UniProt Q96SB4); test: SRPK1 Kinase activity screen
# [35] = target: Tyrosine-protein kinase JAK2 (Homo sapiens) (UniProt O60674); test: JAK2 Kinase activity screen
# [36] = target: Calcium/calmodulin-dependent protein kinase type 1 (Homo sapiens) (UniProt Q14012); test: CAMK1 (CaMK1) Kinase activity screen
# [37] = target: MAP kinase-activated protein kinase 2 (Homo sapiens) (UniProt P49137); test: MAPKAPK2 Kinase activity screen
# [38] = Compound concentration 0.123 uM
compound,measurement,setting,value
CN1CCN(C(=O)C(C)(C)c2ccc(C(=O)Nc3cn4cc(-c5cc(C(C)(C)C)cc(C(C)(C)C)c5)ccc4n3)cc2)CC1 [T3-CLK-N],inhibition,[1],68.3%
same,inhibition,[2],51.3%
same,Ki,[3],> 10000 nM
same,pKi,[3],< 5
same,Ki,[4],2660 nM
same,Ki,[5]; read-out: Ki,3560 nM
same,Ki,[5]; read-out: pKi (converted),3470 nM
same,Ki,[6]; read-out: Ki,1070 nM
same,Ki,[6]; read-out: pKi (converted),1050 nM
same,Ki,D(2) dopamine receptor; read-out: Ki,2750 nM
same,Ki,D(2) dopamine receptor; read-out: pKi (converted),2340 nM
same,Ki,[7]; read-out: Ki,1650 nM
same,Ki,[7]; read-out: pKi (converted),1620 nM
same,Ki,[8],2170 nM
same,Ki,[9]; read-out: Ki,5530 nM
same,Ki,[9]; read-out: pKi (converted),5370 nM
same,Ki,Histamine H2 receptor; read-out: Ki,1730 nM
same,Ki,Histamine H2 receptor; read-out: pKi (converted),1620 nM
same,Ki,Mu-type opioid receptor,4020 nM
same,Ki,[10]; read-out: Ki,3070 nM
same,Ki,[10]; read-out: pKi (converted),2820 nM
same,Ki,[11]; read-out: Ki,1530 nM
same,Ki,[11]; read-out: pKi (converted),1320 nM
same,Ki,[12]; read-out: Ki,2490 nM
same,Ki,[12]; read-out: pKi (converted),2240 nM
same,Ki,[13]; read-out: Ki,2090 nM
same,Ki,[13]; read-out: pKi (converted),1950 nM
CN1CCN(C(=O)C(C)(C)c2ccc(C(=O)Nc3cn4cc(-c5ccncc5)ccc4n3)cc2)CC1 [T3-CLK],inhibition,[14]; [38],92.1%
same,inhibition,[14]; Compound concentration 1.11 uM,100%
same,inhibition,[15]; Compound concentration 0.1 uM,-0.71%
same,inhibition,[15]; Compound concentration 1.0 uM,2.69%
same,inhibition,[16]; [38],91.2%
same,inhibition,[16]; Compound concentration 1.11 uM,99.1%
same,inhibition,[17]; [38],74.2%
same,inhibition,[17]; Compound concentration 1.11 uM,97.5%
same,inhibition,[18]; Compound concentration 0.1 uM,5.46%
same,inhibition,[18]; Compound concentration 1.0 uM,4.24%
same,inhibition,[19]; Compound concentration 0.1 uM,1.85%
same,inhibition,[19]; Compound concentration 1.0 uM,-1.12%
same,inhibition,[20]; Compound concentration 0.1 uM,0.334%
same,inhibition,[20]; Compound concentration 1.0 uM,3.32%
same,inhibition,[21]; Compound concentration 0.1 uM,-3.68%
same,inhibition,[21]; Compound concentration 1.0 uM,-0.398%
same,inhibition,[22]; Compound concentration 0.1 uM,-2%
same,inhibition,[22]; Compound concentration 1.0 uM,0.493%
same,inhibition,[23]; Compound concentration 0.1 uM,3.86%
same,inhibition,[23]; Compound concentration 1.0 uM,25.1%
same,inhibition,[24]; Compound concentration 0.1 uM,13.2%
same,inhibition,[24]; Compound concentration 1.0 uM,46.7%
same,inhibition,[25]; Compound concentration 0.1 uM,-4.42%
same,inhibition,[25]; Compound concentration 1.0 uM,-6.43%
same,inhibition,[26]; Compound concentration 0.1 uM,-9.12%
same,inhibition,[26]; Compound concentration 1.0 uM,-7.35%
same,inhibition,[27]; [38],38.3%
same,inhibition,[27]; Compound concentration 1.11 uM,88.7%
same,inhibition,[28]; Compound concentration 0.1 uM,15.6%
same,inhibition,[28]; Compound concentration 1.0 uM,11.3%
same,inhibition,[29]; Compound concentration 0.1 uM,11.9%
same,inhibition,[29]; Compound concentration 1.0 uM,24.3%
same,inhibition,[30]; Compound concentration 0.1 uM,16.9%
same,inhibition,[30]; Compound concentration 1.0 uM,13.8%
same,inhibition,[31]; Compound concentration 0.1 uM,4.83%
same,inhibition,[31]; Compound concentration 1.0 uM,4.09%
same,inhibition,[32]; Compound concentration 0.1 uM,21.9%
same,inhibition,[32]; Compound concentration 1.0 uM,24.2%
same,inhibition,[33]; Compound concentration 0.1 uM,11%
same,inhibition,[33]; Compound concentration 1.0 uM,37.5%
same,inhibition,[34]; [38],-3.09%
same,inhibition,[34]; Compound concentration 1.11 uM,-2.58%
same,inhibition,[35]; Compound concentration 0.1 uM,-7.35%
same,inhibition,[35]; Compound concentration 1.0 uM,-6.29%
same,inhibition,[36]; Compound concentration 0.1 uM,7.14%
same,inhibition,[36]; Compound concentration 1.0 uM,5.32%
same,inhibition,[37]; Compound concentration 0.1 uM,3.68%
same,inhibition,[37]; Compound concentration 1.0 uM,2.12%
